{"source": "paper PMC12073402", "about": "“A Selective MAP3K1 Inhibitor Facilitates Discovery of NPM1 as a Member of the Network” (Molecules, 2025)", "key": {"[1]": {"experiment": "Metabolic stability in human liver microsomes (LC-MS/MS)", "format": "in vitro ADME", "source_text": "An approach to address this issue of bioavailability is to improve metabolic stability. The para-position of the phenyl ring in acetanilide moieties is susceptible to oxidation. […] To test this, we altered the substitution pattern on the phenyl ring by moving the F atom from the ortho in 84 to the para position (Figure 1A). The regioisomer 51-106, resulting from the above change, was synthesized by coupling 3-(1-methyl-1H-pyrazol-4-yl)quinoxalin-6-amine (1) with freshly prepared 1-fluoro-4-isocyanato-2-(trifluoromethyl)benzene in dichloromethane (Scheme 1). To determine the metabolic stability of 51-106, we incubated 51-106 and analog 84 with human (pooled male and female) liver microsomes and monitored their stability using liquid chromatography–tandem mass spectrometry.\nThe in vitro metabolic stability of 51-106 was determined using human liver […] (XenoTech, LLC; Kansas City, KS, USA), following previously reported methods. […] Sample analysis was performed by liquid chromatography–tandem mass spectrometry (SCIEX QTRAP 4000 LC-MS/MS System, SCIEX, Framingham, MA, USA)."}, "[2]": {"test_system": "TNF-α–induced MAP3K1-IKKβ–mediated NF-κB transcription", "experiment": "NF-κB luciferase reporter assay in HeLa cells", "format": "cell-based", "details": "20, 10, 5 μM, TNF-α 20 ng/mL, 6 h", "source_text": "MAP3K1 was previously shown to phosphorylate IKKβ [12] and regulate NF-κB signaling. Therefore, we validated the ability of 51-106 to inhibit MAP3K1 by probing the phosphorylation status of the known substrate, IKKβ, using an AlphaLISA assay. The pancreatic cancer cells (MiaPaCa2) were subjected to a 30-min pretreatment with varying concentrations of 51-106, followed by TNFα stimulation to induce IKKβ phosphorylation. Following a 15-min stimulation, the levels of phospho-IKKβ and total IKKβ were quantified. […] (Figure 3A). Next, we evaluated the efficacy of 51-106 in a cell-based reporter assay utilizing a HeLa cell line that specifically responds to TNFα induced expression of a luciferase reporter gene that is under the control of an NF-κB response element.\nA suspension of HeLa-NFkB-Luc cells (Cat# SL-0001; Signosis; Santa Clara, CA, USA) (2 × 10^4/well) in 80 μL media was plated in white-walled, flat, clear-bottomed, sterile, 96-well tissue culture plates (Cat# 3610; Corning). The cells were allowed to adhere overnight in a humidified 5% CO2 incubator at 37 °C. […] Post stimulation addition (6 h), fluorescence (Ex 560, Em 590) was measured on the plate reader to assess cell viability. […] Luminescence (1000 ms) was measured on the plate reader set to the kinetic mode of acquisition for 15 min. The luminescence data were normalized to the AlamarBlue values. […]"}, "[3]": {"test_system": "NPM1 T199 phosphorylation", "experiment": "Western blot of NPM1 T199 phosphorylation in PANC-1 cells", "format": "cell-based", "details": "2 h", "source_text": "We further investigated changes in NPM1 phosphorylation in our dataset. Of the NPM1 phosphorylation sites quantified, four sites had significant dose-dependent decreases upon 51-106 treatment: S137, T199, S222, and S227. Only one of these phosphorylation sites, T199, has a commercially available antibody. Importantly, T199 phosphorylation plays an essential role in NPM1 function, as it is required for localization of NPM1 to sites of DNA double-stranded breaks, where it colocalizes with other DNA repair proteins such as γH2AX and RAD51 [38].\nCells were washed with cold 1× PBS and lysed in Radioimmunoprecipitation assay (RIPA) buffer (Cat# 89901; Thermo Fisher Scientific), sodium orthovanadate (Na3VO4) (Cat# 567540-5GM; Sigma-Aldrich; St. Louis, MO, USA), sodium fluoride (NaF) (Cat# 201154-5G, >99% purity; Sigma-Aldrich), β-glycerophosphate (Cat# G9422-10G; Sigma-Aldrich), and 1 mM phenylmethylsulfonyl fluoride (Cat# 10837091001; Sigma Aldrich). The samples were incubated on ice for 30 min, vortexed at 10 min intervals, and centrifuged at 14,000× g for 10 min at 4 °C. The supernatant was collected, and protein was quantified using the BCA Protein Assay kit (Cat# 23225; Thermo Fisher Scientific). […]"}}, "data": [{"smiles": "Cn1cc(-c2cnc3ccc(NC(=O)Nc4ccc(F)c(C(F)(F)F)c4)cc3n2)cn1", "note": "[51-106, 1-(4-Fluoro-3-(trifluoromethyl)phenyl)-3-(3-(1-methyl-1H-pyrazol-4-yl)quinoxalin-6-yl)urea]", "values": [{"measurement": "improvement in t½ in human liver microsomes", "setting": "[1]; 51-106 versus analog 84", "value": "~ 3.7 fold"}, {"measurement": "T1/2 (half-life) in human liver microsomes", "setting": "[1]; Species Human", "value": "~ 50 h"}, {"measurement": "Hepatic Extraction Ratio (E)", "setting": "[1]; Species Human, human liver microsomes", "value": 0.03}, {"measurement": "half-life", "setting": "[1]; both sexes, human, liver microsomes, Species Human, read-out: T1/2 (half-life) in human liver microsomes (converted)", "value": 50.2, "unit": "h"}, {"measurement": "TNF-α–induced NF-κB transcription (luciferase reporter)", "setting": "[2]", "value": "dose-dependent inhibition"}, {"measurement": "NPM1 T199 phosphorylation (Western blot)", "setting": "[3]", "value": "Decreased phosphorylation in NPM1 T199"}]}]}
